Assays:
[1] = tested on: S. pneumoniae D39V; assay: fitness (endpoint OD595 vs no drug) (fraction); higher = more growth
Procedure, shortened: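 Fitness compares growth at the stationary-phase transition with the robust mean of no-drug control wells, as a ratio of optical densities. The ratio is capped at 1. Wells of 384-well plates held 30 µl, or 55 µl for S. pneumoniae, inoculated at OD595 0.01. Readings at OD595 every 30 min for 14 h at 37 °C were corrected against the first reading.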

[2] = tested on: B. subtilis 168; assay: Bliss interaction score (quartile over a dose matrix) (fitness difference); higher = more antagonism (negative = synergy)
Procedure, shortened: (§1)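 Fitness was OD595 at entry into stationary phase divided by the plate's robust no-drug mean and capped at 1; single-drug fitness was inferred from combination data. The Bliss score is observed minus expected (product) fitness, summarised by quartiles over technical, biological and donor/recipient replicates.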

[3] = tested on: S. aureus DSM 20231; assay: as above
Procedure, shortened: as §1

[4] = tested on: S. aureus Newman; assay: as above
Procedure, shortened: as §1

[5] = tested on: S. pneumoniae D39V; assay: as above
Procedure, shortened: as §1
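Throughout, for Bliss interaction score (quartile over a dose matrix): first quartile when negative (synergy) and third quartile when positive (antagonism).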

Clc1ccc(COC(Cn2ccnc2)c2ccc(Cl)cc2Cl)c(Cl)c1 (centres undefined) [Miconazole] + CC1=C\[C@@H](O)CC(=O)Cc2nc(co2)C(=O)N2CCC=C2C(=O)O[C@H](C(C)C)[C@H](C)/C=C/C(=O)NC\C=C\1 [Virginiamycin M1]
fitness, [1]
Details | first compound 1.073 µg/mL | first compound 1.25 µg/mL | first compound 2.145 µg/mL | first compound 2.5 µg/mL | first compound 4.29 µg/mL | first compound 5 µg/mL
partner 0.5 µg/mL | ≥ 1 | – | ≥ 1 | – | 0.882 | –
partner 1 µg/mL | ≥ 1 | – | ≥ 1 | – | ≥ 1 | –
partner 2 µg/mL | 0.983 | 0.902 | ≥ 1 | 0.903 | 0.988 | 0.879

fitness, [1], one replicate
Details | partner 0.15 µg/mL | partner 0.3 µg/mL | partner 0.5 µg/mL | partner 1 µg/mL
first compound 1.25 µg/mL | 0.949 | 0.905 | ≥ 1 | ≥ 1
first compound 2.5 µg/mL | 0.95 | 0.902 | ≥ 1 | ≥ 1
first compound 5 µg/mL | 0.906 | 0.904 | 0.997 | 0.891

Details | Bliss interaction score
[2] | 0.103
[3] | 0.0731
[4] | 0.0829
[5] | 0.0555

Clc1ccc(COC(Cn2ccnc2)c2ccc(Cl)cc2Cl)c(Cl)c1 (centres undefined) [Miconazole] + CCC(C)C1C(=O)NC(=C)C(=O)NC(C(=O)NC(CSCC(C(=O)N1)NC(=O)/C(=C/C)/NC(=O)C(C(C)CC)N)C(=O)NC2C(SCC(NC(=O)CNC(=O)C3CCCN3C2=O)C(=O)NC(CCCCN)C(=O)NC4C(SCC(NC(=O)CNC(=O)C(NC(=O)C(NC(=O)C(NC(=O)CNC4=O)C)CC(C)C)CCSC)C(=O)NC(CC(=O)N)C(=O)NC(CCSC)C(=O)NC(CCCCN)C(=O)NC5C(SCC6C(=O)NC(C(=O)NC(CSC(C(C(=O)N6)NC(=O)C(NC5=O)C)C)C(=O)NC(CO)C(=O)NC(C(C)CC)C(=O)NC(CC7=CN=CN7)C(=O)NC(C(C)C)C(=O)NC(=C)C(=O)NC(CCCCN)C(=O)O)CC8=CN=CN8)C)C)C)CC(C)C [Nisin]
fitness, [1], main component drawn
Details | first compound 1.073 µg/mL | first compound 1.25 µg/mL | first compound 2.145 µg/mL | first compound 2.5 µg/mL | first compound 4.29 µg/mL | first compound 5 µg/mL
partner 0.4275 µg/mL | – | 0.979 | – | 0.998 | – | 0.987
partner 0.855 µg/mL | – | 0.973 | – | 0.965 | – | 0.977
partner 1.6 µg/mL | 0.264 | – | 0.16 | – | 0.172 | –
partner 1.71 µg/mL | – | 0.0702 | – | 0.146 | – | 0.119
partner 3.2 µg/mL | 0.0113 | – | 0.0171 | – | 0.151 | –
partner 6.4 µg/mL | 0.0029 | – | 0.0131 | – | 0.168 | –

main component drawn
Details | Bliss interaction score
[2] | 0.0476
[3] | -0.0527
[4] | -0.0601
[5] | 0.166

Clc1ccc(COC(Cn2ccnc2)c2ccc(Cl)cc2Cl)c(Cl)c1 (centres undefined) [Miconazole] + CCN(CC)CCOC(=O)c1ccc(N)cc1 [Procaine]
fitness, [1]
Details | first compound 1.073 µg/mL | first compound 2.145 µg/mL | first compound 4.29 µg/mL
partner 85.5 µg/mL | ≥ 1 | ≥ 1 | 0.936
partner 171 µg/mL | 0.993 | 0.999 | 0.899
partner 342 µg/mL | 0.997 | ≥ 1 | 0.871

fitness, [1], one replicate
Details | first compound 1.25 µg/mL | first compound 2.5 µg/mL | first compound 5 µg/mL
partner 85.5 µg/mL | 0.983 | ≥ 1 | ≥ 1
partner 171 µg/mL | 0.971 | 0.976 | 0.992
partner 342 µg/mL | 0.968 | 0.992 | ≥ 1

Details | Bliss interaction score
[2] | 0.0691
[3] | 0.0418
[4] | -0.0389
[5] | 0.0592

Clc1ccc(COC(Cn2ccnc2)c2ccc(Cl)cc2Cl)c(Cl)c1 (centres undefined) [Miconazole] + CN1C2=CC=CC=C2N=C3C1=CC=CC3=O [Pyocyanin]
fitness, [1]
Details | first compound 1.073 µg/mL | first compound 2.145 µg/mL | first compound 4.29 µg/mL
partner 0.325 µg/mL | ≥ 1 | ≥ 1 | ≥ 1
partner 0.65 µg/mL | 0.975 | 1 | 0.908
partner 1.3 µg/mL | 0.787 | – | 0.729

fitness, [1], one replicate
Details | first compound 1.25 µg/mL | first compound 2.5 µg/mL | first compound 5 µg/mL
partner 0.325 µg/mL | 0.917 | 0.916 | 0.93
partner 0.65 µg/mL | 0.963 | 0.905 | 0.907

Details | Bliss interaction score
[2] | -0.0752
[3] | 0.0453
[4] | 0.0548
[5] | 0.0535

Clc1ccc(COC(Cn2ccnc2)c2ccc(Cl)cc2Cl)c(Cl)c1 (centres undefined) [Miconazole] + CN(C)c1cc(NC(=O)CNC(C)(C)C)c(O)c2c1C[C@H]1C[C@H]3[C@H](N(C)C)C(O)=C(C(N)=O)C(=O)[C@@]3(O)C(O)=C1C2=O [Tigecycline]
fitness, [1]
Details | first compound 1.073 µg/mL | first compound 1.25 µg/mL | first compound 2.145 µg/mL | first compound 2.5 µg/mL | first compound 4.29 µg/mL | first compound 5 µg/mL
partner 0.65 µg/mL | 0.992 | 0.974 | 0.998 | 0.982 | ≥ 1 | ≥ 1
partner 1.3 µg/mL | ≥ 1 | 0.997 | 0.992 | 0.991 | ≥ 1 | ≥ 1
partner 2.6 µg/mL | 0.999 | 0.982 | ≥ 1 | 0.993 | 0.998 | 0.927

Details | Bliss interaction score
[2] | 0.0621
[3] | 0.0455
[4] | 0.0412
[5] | 0.0957

Clc1ccc(COC(Cn2ccnc2)c2ccc(Cl)cc2Cl)c(Cl)c1 (centres undefined) [Miconazole] + CN(N=O)C(=O)N[C@@H](C=O)[C@@H](O)[C@H](O)[C@H](O)CO [Streptozotocin]
fitness, [1]
Details | first compound 1.073 µg/mL | first compound 2.145 µg/mL | first compound 4.29 µg/mL
partner 1.2 µg/mL | 0.997 | 0.982 | 0.939
partner 2.4 µg/mL | 0.989 | 0.988 | 0.938
partner 4.8 µg/mL | ≥ 1 | 0.977 | 0.923

fitness, [1], one replicate
Details | first compound 1.25 µg/mL | first compound 2.5 µg/mL | first compound 5 µg/mL
partner 1.2 µg/mL | 0.924 | 0.903 | 0.942
partner 2.4 µg/mL | 0.971 | 0.94 | ≥ 1
partner 4.8 µg/mL | 0.788 | 0.813 | 0.841

Details | Bliss interaction score
[2] | 0.143
[3] | 0.039
[4] | 0.0421
[5] | 0.0621

Cc1cc(NS(=O)(=O)c2ccc(N)cc2)no1 [Sulfamethoxazol] + CC[C@H]1OC(=O)[C@H](C)C(=O)[C@H](C)[C@@H](O[C@@H]2O[C@H](C)C[C@H](N(C)C)[C@H]2O)[C@](C)(OC)C[C@@H](C)C(=O)[C@H](C)[C@H]2N(CCCCn3cnc(-c4cccnc4)c3)C(=O)O[C@]12C [Telithromycin]
Details | Bliss interaction score
[2] | -0.0301
[3] | 0.034
[4] | 0.0359
[5] | -0.0611

Cc1cc(NS(=O)(=O)c2ccc(N)cc2)no1 [Sulfamethoxazol] + Oc1cc(Cl)ccc1Oc1ccc(Cl)cc1Cl [Triclosan]
Details | Bliss interaction score
[2] | 0.0965
[3] | 0.0924
[4] | 0.0302
[5] | -0.0608

CC[C@H]1OC(=O)[C@H](C)C(=O)[C@H](C)[C@@H](O[C@@H]2O[C@H](C)C[C@H](N(C)C)[C@H]2O)[C@](C)(OC)C[C@@H](C)C(=O)[C@H](C)[C@H]2N(CCCCn3cnc(-c4cccnc4)c3)C(=O)O[C@]12C [Telithromycin] + CC1=C\[C@@H](O)CC(=O)Cc2nc(co2)C(=O)N2CCC=C2C(=O)O[C@H](C(C)C)[C@H](C)/C=C/C(=O)NC\C=C\1 [Virginiamycin M1]
Details | Bliss interaction score
[2] | -0.0239
[3] | -0.0529
[4] | -0.0314
[5] | -0.037

CC[C@H]1OC(=O)[C@H](C)C(=O)[C@H](C)[C@@H](O[C@@H]2O[C@H](C)C[C@H](N(C)C)[C@H]2O)[C@](C)(OC)C[C@@H](C)C(=O)[C@H](C)[C@H]2N(CCCCn3cnc(-c4cccnc4)c3)C(=O)O[C@]12C [Telithromycin] + CN(C)c1cc(NC(=O)CNC(C)(C)C)c(O)c2c1C[C@H]1C[C@H]3[C@H](N(C)C)C(O)=C(C(N)=O)C(=O)[C@@]3(O)C(O)=C1C2=O [Tigecycline]
Details | Bliss interaction score
[2] | 0.0616
[3] | -0.0261
[4] | 0.0378
[5] | -0.107

CC[C@H]1OC(=O)[C@H](C)C(=O)[C@H](C)[C@@H](O[C@@H]2O[C@H](C)C[C@H](N(C)C)[C@H]2O)[C@](C)(OC)C[C@@H](C)C(=O)[C@H](C)[C@H]2N(CCCCn3cnc(-c4cccnc4)c3)C(=O)O[C@]12C [Telithromycin] + CN[C@H](CC(C)C)C(=O)N[C@H]1C(=O)N[C@@H](CC(N)=O)C(=O)N[C@H]2C(=O)N[C@H]3C(=O)N[C@H](C(=O)N[C@H](C(=O)O)c4cc(O)cc(O)c4-c4cc3ccc4O)[C@H](O)c3ccc(c(Cl)c3)Oc3cc2cc(c3O[C@@H]2O[C@H](CO)[C@@H](O)[C@H](O)[C@H]2O[C@H]2C[C@](C)(N)[C@H](O)[C@H](C)O2)Oc2ccc(cc2Cl)[C@H]1O [Vancomycin]
Details | Bliss interaction score
[2] | 0.0487
[3] | -0.0478
[4] | 0.0259
[5] | 0.0519

CC[C@H]1OC(=O)[C@H](C)C(=O)[C@H](C)[C@@H](O[C@@H]2O[C@H](C)C[C@H](N(C)C)[C@H]2O)[C@](C)(OC)C[C@@H](C)C(=O)[C@H](C)[C@H]2N(CCCCn3cnc(-c4cccnc4)c3)C(=O)O[C@]12C [Telithromycin] + COc1cc(Cc2cnc(N)nc2N)cc(OC)c1OC [Trimethoprim]
Details | Bliss interaction score
[2] | -0.243
[3] | 0.0276
[4] | 0.0595
[5] | 0.0323

CC[C@H]1OC(=O)[C@H](C)C(=O)[C@H](C)[C@@H](O[C@@H]2O[C@H](C)C[C@H](N(C)C)[C@H]2O)[C@](C)(OC)C[C@@H](C)C(=O)[C@H](C)[C@H]2N(CCCCn3cnc(-c4cccnc4)c3)C(=O)O[C@]12C [Telithromycin] + Oc1cc(Cl)ccc1Oc1ccc(Cl)cc1Cl [Triclosan]
Details | Bliss interaction score
[2] | 0.017
[3] | -0.0253
[4] | 0.0266
[5] | 0.0532

Oc1cc(Cl)ccc1Oc1ccc(Cl)cc1Cl [Triclosan] + CC1=C\[C@@H](O)CC(=O)Cc2nc(co2)C(=O)N2CCC=C2C(=O)O[C@H](C(C)C)[C@H](C)/C=C/C(=O)NC\C=C\1 [Virginiamycin M1]
Details | Bliss interaction score
[2] | 0.0973
[3] | 0.108
[4] | 0.034
[5] | 0.0386

Oc1cc(Cl)ccc1Oc1ccc(Cl)cc1Cl [Triclosan] + CN[C@H](CC(C)C)C(=O)N[C@H]1C(=O)N[C@@H](CC(N)=O)C(=O)N[C@H]2C(=O)N[C@H]3C(=O)N[C@H](C(=O)N[C@H](C(=O)O)c4cc(O)cc(O)c4-c4cc3ccc4O)[C@H](O)c3ccc(c(Cl)c3)Oc3cc2cc(c3O[C@@H]2O[C@H](CO)[C@@H](O)[C@H](O)[C@H]2O[C@H]2C[C@](C)(N)[C@H](O)[C@H](C)O2)Oc2ccc(cc2Cl)[C@H]1O [Vancomycin]
Details | Bliss interaction score
[2] | 0.0377
[3] | 0.0768
[4] | 0.0453
[5] | 0.0833

Oc1cc(Cl)ccc1Oc1ccc(Cl)cc1Cl [Triclosan] + COc1cc(Cc2cnc(N)nc2N)cc(OC)c1OC [Trimethoprim]
Details | Bliss interaction score
[2] | 0.13
[3] | -0.0451
[4] | 0.0267
[5] | 0.113

Reference: the supplement of paper PMC10627819
